Measurements published in patent US20020072512A1, “Method of preventing and treating HIV-mediated central nervous system damage” (priority 2000, published 2002).

Tests used:
[1] = system: astroglial cells incubated with supernatants of HIV-infected macrophages; assay: Malondialdehyde (MDA) in astroglial cells incubated with supernatants of HIV-infected macrophages; format: cell-based, human; settings: M40401 100 μM, L-NAME 100 μM, AZT 50 μM, MDA in nmol g-1
Description: (§1) The astrocytic cell line Lipari was derived from a patient who presented a large right front-temporal mass (astrocytoma), and grown as previously described (Mollace, V., Colasanti, M., Rodinò, P., Lauro, G. M. & Nisticò, G. (1994b). Biochem. Biophys. Res. Commun. 203, 87-92.). Cells were expanded and cultured by seeding them in 25cm plastic flasks at a density of 0.7×10^6 cells/flask in complete medium, and incubated at 37° C. in humidified air containing 5% CO2.
(§2) A monocytotropic strain of HIV-1, named HIV-1Ba-L was used in all experiments. M/M cultures were exposed to HIV and virus expansion was performed. After 2 hours, virus was removed by washing cultures with warm medium and then cultures of M/M infected by HIV were carried out for further 13-15 days.
(§3) The supernatant of HIV-infected M/M was collected 13 days after virus infection and then incubated for 3 hours with cultured astrocytes. The supernatant of Mock-infected M/M was used as control treatment. […] HIV-p24 antigen production in supernatants of M/M was assesed using a commercially available ELISA Kit (HIV-p24 gag Abbott Lab, Pomezia, Italy).

[2] = system: astroglial cells exposed to supernatant of HIV-infected macrophages; assay: Ultrastructural studies (electron microscopy) of astroglial cells; format: cell-based, human; settings: co-incubation, AZT 50 μM; for pro-apoptotic effect of supernatant of HIV-infected M/M on astroglial cell ultrastructure: M40401 10-100 μM, L-NAME 100 μM
Description: as §1, §2, §3
Cells for electron microscopy were fixed in 2.5% glutaraldehyde in PBS pH7.4 at 4° C. and then washed for 2 hours in PBS and post fixed in osmium tetroxide 1,33% for 2 hours at 4° C. After several washes in PBS, the cells were dehydrated in graded alcohol, transferred into toluene, and embedded in Epon 812 resin. The resin was allowed to polymerize in a dry oven at 60° C. for 24 hours. Thin sections were cut with a glass knife Reichert microtome, stained with Touloidine Blue and examined on Axioscope microscope. Ultra-thin sections were cut on a Reichert microtome using a diamond knife, stained with uranyl-acetate-lead-hydroxide and evaluated and photographed on a Philips electron microscope CM 10 (Philips).

[3] = system: Lipari astroglial cell line incubated with supernatant of HIV-1 infected macrophages; assay: FACS analysis of apoptotic cell death of astrocytes exposed to supernatant of HIV-infected macrophages; format: cell-based, human; settings: M40401 10-100 μM, L-NAME 100 μM, AZT 50 μM
Description: as §1, §2
The supernatant of HIV-infected M/M was collected 13 days after virus infection and then incubated for 3 hours with cultured astrocytes. The supernatant of Mock-infected M/M was used as control treatment. […]
The astrocytic cells either treated or untreated with supernatants of HIV-infected macrophages were gently detached from plastic 8 days after exposure. […] Propidium iodide-stained cells were analysed with a FACScan Flow Cytometer; fluorescence was measured between 565 and 605nm. The data were acquired and analysed by the Lysis II program.

[4] = Reaction with hydrogen peroxide (spectrophotometric or cyclic voltammetric monitoring); format: biochemical; settings: spectrophotometric or electrochemical (cyclic voltammetric) techniques
[5] = Catalytic catalase activity assay using oxygen electrodes; format: biochemical; settings: total oxygen evolved
[6] = same conditions (pH=7.4 and 21° C.); cited from earlier work

SMILES | MDA overproduction (lipid peroxydation) [1] | pro-apoptotic effect of HIV-infected macrophages on astroglial cell ultrastructure ([2]; FIG. 5, M40401 100 μM) | pro-apoptotic effect of supernatant of HIV-infected M/M on astroglial cell ultrastructure [2] | apoptotic cell death of astroglial cells as evaluated by FACS analysis [3] | stoichiometric reaction with H2O2 [4] | catalytic catalase activity with H2O2 [5] | reaction with hydrogen peroxide [6]
Cc1cn([C@H]2C[C@H](N=[N+]=[N-])[C@@H](CO)O2)c(=O)[nH]c1=O [AZT] | failed to antagonize | failed to inhibit | failed to inhibit |  |  |  | 
COC(=O)[C@@H](N)CCCNC(=N)N[N+](=O)[O-] [L-NAME] | failed to antagonize |  | failed to inhibit | failed to modify |  |  | 
[Cl-].[Cl-].[Mn+2].c1cc2nc(c1)CN[C@@H]1CCCC[C@H]1NCCN[C@@H]1CCCC[C@H]1NC2 [M40403] |  |  |  |  | no stoichiometric reaction is observed | no catalytic activity is observed | do not react
